# In patent US5622960A, “Topoisomerase II inhibitors and therapeutic uses therefor” (The United States of America as represented by the …, priority 1992, dated 1997):
# Entries after “also recorded” stand apart in the source; their conditions may differ.
# How the values were obtained:
# tubulin = test: in vitro tubulin polymerization assay; assay type: biochemical
# Protocol: (§1) Thus, azatoxin effectively prevents tubulin polymerization in vitro at concentrations in the range of 1 to 10 μM.
# [1] = target: T1, purified murine leukemia top 2 (Mus musculus, UniProt Q01320); test: Sequencing of topoisomerase II cleavage sites (SV40 and c-myc DNA); assay type: biochemical; conditions: for top 2 cleavage sites induced (number/amount): SV40 and c-myc DNA, purified murine top 2
# T1 construct: single 170 kDa band on silver-stained SDS-PAGE
# T1 sequence (Q01320 whole entry): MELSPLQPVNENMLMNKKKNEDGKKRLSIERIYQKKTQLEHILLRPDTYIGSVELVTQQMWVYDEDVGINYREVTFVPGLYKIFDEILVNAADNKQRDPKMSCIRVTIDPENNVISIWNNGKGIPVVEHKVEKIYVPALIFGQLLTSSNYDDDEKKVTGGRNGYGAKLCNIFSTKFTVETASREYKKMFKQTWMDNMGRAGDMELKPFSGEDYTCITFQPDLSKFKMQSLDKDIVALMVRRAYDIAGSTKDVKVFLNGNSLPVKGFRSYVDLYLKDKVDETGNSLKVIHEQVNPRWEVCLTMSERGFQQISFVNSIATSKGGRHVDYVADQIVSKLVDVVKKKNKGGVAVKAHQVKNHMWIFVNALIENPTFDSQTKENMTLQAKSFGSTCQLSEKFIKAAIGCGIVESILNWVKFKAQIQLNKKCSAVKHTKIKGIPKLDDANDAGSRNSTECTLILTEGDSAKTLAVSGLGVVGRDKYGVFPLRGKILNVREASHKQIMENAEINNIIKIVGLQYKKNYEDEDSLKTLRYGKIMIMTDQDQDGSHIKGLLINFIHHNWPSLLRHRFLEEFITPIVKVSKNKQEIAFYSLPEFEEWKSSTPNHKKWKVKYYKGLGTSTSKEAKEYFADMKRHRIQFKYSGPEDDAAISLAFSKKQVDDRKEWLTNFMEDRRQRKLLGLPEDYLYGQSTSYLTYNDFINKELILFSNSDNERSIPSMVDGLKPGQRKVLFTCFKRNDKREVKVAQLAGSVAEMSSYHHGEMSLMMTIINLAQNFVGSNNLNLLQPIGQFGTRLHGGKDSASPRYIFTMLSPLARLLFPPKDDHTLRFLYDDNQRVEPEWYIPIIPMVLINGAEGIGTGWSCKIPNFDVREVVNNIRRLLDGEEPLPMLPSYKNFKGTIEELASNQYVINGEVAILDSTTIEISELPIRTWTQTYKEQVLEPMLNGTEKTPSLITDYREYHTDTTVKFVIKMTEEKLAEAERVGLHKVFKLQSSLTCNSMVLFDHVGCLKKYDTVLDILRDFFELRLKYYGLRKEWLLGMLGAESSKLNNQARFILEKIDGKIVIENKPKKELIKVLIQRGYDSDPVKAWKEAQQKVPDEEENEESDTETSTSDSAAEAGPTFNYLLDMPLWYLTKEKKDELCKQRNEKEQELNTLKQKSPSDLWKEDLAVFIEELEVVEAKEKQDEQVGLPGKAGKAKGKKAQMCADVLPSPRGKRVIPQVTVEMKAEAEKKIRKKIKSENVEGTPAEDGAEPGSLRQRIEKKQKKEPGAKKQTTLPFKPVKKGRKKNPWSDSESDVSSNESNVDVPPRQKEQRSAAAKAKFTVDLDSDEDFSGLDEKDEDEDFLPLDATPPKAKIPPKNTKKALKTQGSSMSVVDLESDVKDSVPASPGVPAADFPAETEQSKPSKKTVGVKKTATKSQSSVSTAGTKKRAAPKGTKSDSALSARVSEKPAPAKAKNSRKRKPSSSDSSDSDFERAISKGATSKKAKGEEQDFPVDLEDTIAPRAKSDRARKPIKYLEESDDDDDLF
# Protocol: (§2) Chemicals, and enzymes: Azatoxin and its derivatives, as well as the demethyldesoxypodophyllotoxin (DMDP) and demethylepipodophyllotoxin (DMEP), were synthesized by conventional methods. The compounds m-AMSA and mitoxantrone were obtained from the Drug Synthesis and Chemistry Branch, National Cancer Institute, Bethesda, Md. The compounds VP-16 and VM-26 were obtained from Bristol-Myers Company (Wallingford, Conn.). Drug stock solutions were made in dimethylsulfoxide at 10 mM. Further dilutions were made in distilled water. Various other reagents, including simian virus 40 (SV40) and c-myc human DNA inserts in plasmid pBR322, restriction endonucleases, DNA topoisomerase I, T4 polynucleotide kinase, calf intestine phosphatase, agarose and polyacrylamide/bis, were purchased from Bethesda Research Laboratories (Gaithersburg, Md.), from the American Type Culture Collection (Rockville, Md.) or from New England Biolabs (Beverly, Mass.). [Gamma-^32 P]ATP was purchased from New England Nuclear Research Products (Boston, Mass.).
# (§3) DNA topoisomerase II was purified from mouse leukemia L1210 cell nuclei as described, for example, by Pommier et al. (1985), supra, and was stored at -70° C. in 40% (v/v) glycerol, 0.35 M NaCl, 5 mM MgCl2, 1 mM KH2 PO4, 0.2 mM dithiothreitol and 0.1 mM phenylmethanesulfonyl fluoride (pH 6.4). The purified enzyme yielded a single 170 kDa band after silver staining of SDS-polyacrylamide gels, in accordance with the description of Pommier et al., Cancer Res. 46: 3075-81 (1986).
# (§4) Preparation of end-labeled DNA fragments: DNA fragments were 5' end-labeled as described, for example, by Fesen and Pommier (1989), supra. Briefly, native DNA was first linearized with a restriction enzyme, […] then the 5'-DNA termini were dephosphorylated with calf alkaline phosphatase and labeled with [gamma-^32 P]ATP using T4 polynucleotide kinase. For double-strand breaks assays using HL-60 nuclear extract, SV40 DNA was digested with BclI endonuclease and labeled at both DNA termini. For sequencing experiments, SV40 and c-myc DNAs were first 5'-end labeled at the XhoII and XbaI restriction sites, respectively. Then, in order to generate uniquely 5'-end-labeled fragments, labeled DNA was subjected to a second enzyme digestion, PflMI for SV40, and EcoRI plus HindIII for c-myc DNA. The resulting DNA fragments were separated by agarose gel electrophoresis and isolated by electroelution. Purification by phenol-chloroform extraction and ethanol precipitation were included between each step and at the end of the labeling procedures, pursuant to Pommier et al., J. Molec. Biol. 222: 909-24 (1991).
# Topoisomerase II-induced DNA cleavage reactions: DNA fragments were equilibrated with or without drug in 10 mM Tris-HCl, pH 7.5, 50 mM KCl, 5 mM MgCl2 0.1 mM EDTA, 1 mM ATP and 15 μg/ml bovine serum albumin for 5 minutes before addition of purified topoisomerase II (40 to 70 ng) or HL-60 nuclear extract in 20 μl final reaction volume. Reactions were stopped by adding sodium dodecyl sulfate (SDS) to a final concentration of 1% and proteinase K to 400 μg/ml, followed by incubation for 1 hour at 40° C.
# For DNA sequence analysis, samples were precipitated with ethanol and resuspended in 2.5 μl loading buffer (80% formamide, 10 mM NaOH, 1 mM EDTA, 0.1% xylene cyanol and 0.1% bromophenol blue). Samples were heated to 90° C. and immediately loaded into DNA sequencing gels (6% polyacrylamide; 19:1, acrylamide:bis) containing 7M urea in (1×) TBE buffer. Electrophoresis was at 2500 V (60 W) for 4 hours. Gels were dried on 3M paper sheets and autoradiographed with Kodak XAR-2 film. See Pommier et al. (1991), supra.
# Induction of top 2 cleavage by azatoxin was tested directly with the use of purified murine leukemia top 2. […] Sites of cleavage were also determined by DNA sequencing in the 5' flank of c-myc first intron.
# top 2 = test: Inhibition of top 2-mediated relaxation of native SV40 DNA; assay type: biochemical, mouse
# Protocol: as §3
# Two different assays were conducted to illuminate the nature of azatoxin's effects vis-a-vis DNA relaxation. To study the inhibition of top 2 catalytic activity, topoisomerase reactions were performed with 0.4 μg native SV40 DNA in 30 μl reaction buffer for 30 minutes at 37° C. and stopped by adding SDS to a final concentration of 1% and proteinase K to 400 μg/ml, followed by incubation for 1 hour at 42° C., essentially as described by Fesen & Pommier (1989), supra. Agarose gel electrophoresis was performed in 1% gels made in Tris-Acetate-EDTA (TAE) buffer (40 mM Tris-Acetate, pH 7.6, 10 mM Na2 EDTA). Gels were run at 2 V/cm overnight, washed in water and then stained with 1 μM ethidium bromide for 45 minutes. After an additional 45 minutes destaining in 1 mM Mg2 SO4, the DNA was visualized under UV light and photographed with a Polaroid type 57 film.
# [2] = tested on: cells (protein-linked DNA breaks); test: protein-linked DNA breaks in cells; assay type: cell-based; conditions: compared to other top 2 inhibitors
# [3] = tested on: panel of sixty human tumor cells lines; test: Growth inhibition / cytotoxicity against NCI panel of sixty human tumor cell lines; assay type: cell-based
# Description: FIG. 1 is a graphical representation of results generated by testing the inhibitory activity of an illustrative compound within the present invention against panel of tumor cell lines which is a standard of the National Cancer Institute Developmental Therapeutics Program [GI50: "50% growth inhibition"; TGI: "[…]"; LC50: "50% lethal concentration"].
# See Yang et al., Cancer Res. 45:5872-76 (1985), and Liu (1989), supra, at 361-63. […] Pursuant to the convention of Paull et al., J. Nat'l Cancer Inst. […] See also Monks et al., J. Nat'l Cancer Inst. 83: 757-66 (1991), and Boyd, Principles & Practice of Oncology3:1-12 (1989).
# as §1
# SV40 DNA = test: DNA unwinding (intercalation) assay with excess topoisomerase I; assay type: biochemical, simian virus 40
# Protocol: To assess DNA unwinding, see Pommier et al., Nucleic Acids Res. 15: 6713-31(1987), the DNA was relaxed first by treatment for 15 minutes with top 1 (20 units), after which the test agent was added. These steps were carried out at 37° C. DNA-agent-top 1 mixtures were incubated for an additional 30 minutes and then stopped as described above. Samples were then subjected to agarose gel electrophoresis as described above.
# This was also the case for the 2 azatoxin isomers, 8 and 10, and for the demethylepipodophyllotoxins, DMDP and DMEP. Similar results were obtained with supercoiled DNA.
# [4] = tested on: top 2 (HL-60 nuclear extract); test: Induction of DNA double-strand breaks in SV40 DNA in presence of HL-60 nuclear extract; assay type: biochemical
# Protocol: as §2
# as §4, with “Purification by phenol-chloroform extraction and ethanol precipitation were included between each step and at the end of the labeling procedures, pursuant to Pommier et al., J. Molec. Biol. 222: 909-24 (1991).” left out
# For agarose gel analysis, 3 μl (10×) loading buffer (0.3% bromophenol blue, 16% Ficoll, 10 mM Na2 HPO4) was added to each sample which was then heated at 65° C. for 1-2 minutes before loading into an agarose gel made in (1×) TBE (89 mM Tris, 89 mM boric acid, 2 mM EDTA, pH8), in accordance with Fesen & Pommier (1989), supra. […] The quantification of drug-induced DNA double-strand breaks in the presence of HL-60 nuclear extract was effected as described in the next paragraph.
# Radioactive gels were counted in betascope 603 blot analyzer. […] Drug-induced cleavage was expressed as: [formula] where C. and T. are the counts for cleaved and total DNA, respectively, in presence of nuclear extract without drug.
# Drug-induced DNA double-strand breaks were measured first in SV40 DNA in the presence of HL-60 nuclear extracts. […]
smiles,measurement,setting,value
"COc1cc([C@@H]2c3[nH]c4ccccc4c3C[C@H]3COC(=O)N32)cc(OC)c1O [Azatoxin, 5R, 11aS-3-One-5,4,11,11a-tetrahydro-5-(3,5-dimethoxy-4-hydroxyphenyl) -1H, 6H-oxazolo[3', 4': 1,6]pyrido[3,4-b]indole]",tubulin inhibition (in words),tubulin,potent tubulin inhibitor
same,top 2 cleavage potency (in words),[1],potent top 2 inhibitor
same,top 2 cleavage sites induced (number/amount),[1],induced many cleavage sites both in the SV40 and the c-myc DNA fragments
same,top 2 cleavage sites induced (number/amount),[1]; listed as azatoxin,"induced more cleavage sites than mitoxantrone, m-AMSA, VM-26 or VP-16; also recorded: induces the largest number of top 2 cleavage sites both in SV40 and c-myc DNA"
same,top 2 cleavage pattern,[1]; compared with other top 2 inhibitors,cleavage pattern differing from those induced by other top 2 inhibitors
same,production of linear / nicked DNA,top 2,produce a substantial amount of linear DNA without significant increased of nicked DNA
same,inhibition of top 2-mediated relaxation,"top 2; 30 minutes, 37° C.",inhibits top 2-mediated relaxation of native SV40 DNA
same,inducing protein-linked DNA breaks in cells,[2],very active in inducing protein-linked DNA breaks in cells
same,cytotoxicity to tumor cells (in words),[3]; FIG. 1 means graph,cytotoxicity of aratoxin to cells associated with disseminated cancers (leukemias) as well as several consolidated cancers (non-small cell lung and colon)
same,growth inhibition of human tumor cell lines (in words),"[3]; sixty cell lines: leukemia, melanoma, lung, colon, kidney, ovary, CNS",significant inhibitory activity
same,DNA unwinding / intercalation conclusion,SV40 DNA,does not intercalate into DNA
same,DNA unwinding,"SV40 DNA; relaxed SV40 DNA, excess topoisomerase I, concentrations as high as 1 mM",did not induce detectable DNA unwinding even at drug concentrations as high as 1 mM
same,DNA cleavage potency (in words),"[4]; SV40 DNA, HL-60 nuclear extract, compared to VP-16",comparable to that of VP-16
same,"cleavage above 10 μM, concentration dependence",[4]; above 10 μM,cleavage occurred at many sites and was proportional to the logarithm of azatoxin concentration
same,suppression of DNA cleavage at high drug concentrations,[4]; up to 1 mM,not suppressed at high drug concentrations (up to 1 mM)
